# Test results taken from patent US20250346599A1, “TRICYCLIC PHTHALAZINONE PARP INHIBITORS AND METHODS OF USE” (Valo Health, Inc., priority 2022, published 2025).
# What was measured:
# [1] = biological target: human MDR1 (P-glycoprotein; P-gp) (Homo sapiens (Human), UniProt P08183); experiment: bi-directional MDCK-MDR1 permeability assay; assay type: in vitro ADME; conditions: for MDCK-MDR1 Papp A→B (10^−6 cm/s) / Papp A→B: apical to basolateral direction; for MDCK-MDR1 ER / efflux ratio: efflux ratio B→A/A→B; for Papp A→B: dog; for Papp A→B / efflux ratio: MDCK-MDR1; for efflux ratio: human, read-out: MDCK-MDR1 ER
# Chain of human MDR1 (P-glycoprotein; P-gp) (P08183 whole entry): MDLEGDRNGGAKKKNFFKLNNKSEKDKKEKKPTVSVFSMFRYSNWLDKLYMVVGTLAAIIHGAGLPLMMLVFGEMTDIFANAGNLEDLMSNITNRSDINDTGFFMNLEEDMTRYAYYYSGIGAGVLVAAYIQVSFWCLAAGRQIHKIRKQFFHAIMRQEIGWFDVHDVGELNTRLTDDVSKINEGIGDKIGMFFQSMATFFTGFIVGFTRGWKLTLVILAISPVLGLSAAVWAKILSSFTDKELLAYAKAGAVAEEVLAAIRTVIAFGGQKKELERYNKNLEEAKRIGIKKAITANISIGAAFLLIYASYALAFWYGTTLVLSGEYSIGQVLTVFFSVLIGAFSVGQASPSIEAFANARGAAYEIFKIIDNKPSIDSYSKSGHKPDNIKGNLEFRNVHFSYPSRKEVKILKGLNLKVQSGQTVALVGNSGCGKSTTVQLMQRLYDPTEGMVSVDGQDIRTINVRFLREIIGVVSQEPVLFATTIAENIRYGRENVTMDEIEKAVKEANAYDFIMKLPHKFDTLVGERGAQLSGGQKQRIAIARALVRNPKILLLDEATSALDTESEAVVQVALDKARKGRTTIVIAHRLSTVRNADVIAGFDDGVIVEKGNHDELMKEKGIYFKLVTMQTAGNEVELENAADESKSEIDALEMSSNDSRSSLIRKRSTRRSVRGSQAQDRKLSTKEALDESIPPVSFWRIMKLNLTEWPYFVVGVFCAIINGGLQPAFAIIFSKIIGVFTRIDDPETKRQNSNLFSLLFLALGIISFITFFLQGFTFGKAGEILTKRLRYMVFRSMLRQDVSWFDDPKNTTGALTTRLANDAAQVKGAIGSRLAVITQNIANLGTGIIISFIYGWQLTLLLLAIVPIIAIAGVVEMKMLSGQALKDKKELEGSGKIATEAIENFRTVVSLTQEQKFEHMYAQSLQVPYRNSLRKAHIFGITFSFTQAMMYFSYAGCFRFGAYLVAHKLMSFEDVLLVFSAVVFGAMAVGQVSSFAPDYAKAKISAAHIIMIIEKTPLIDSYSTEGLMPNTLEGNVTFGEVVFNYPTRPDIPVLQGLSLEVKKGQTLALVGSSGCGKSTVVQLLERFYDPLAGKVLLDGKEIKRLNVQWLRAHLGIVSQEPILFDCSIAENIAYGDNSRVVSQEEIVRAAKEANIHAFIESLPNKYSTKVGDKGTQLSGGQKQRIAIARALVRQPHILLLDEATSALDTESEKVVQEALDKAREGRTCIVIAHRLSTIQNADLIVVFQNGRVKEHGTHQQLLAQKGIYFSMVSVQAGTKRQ
# Source text: The bi-directional assay containing a Mandin Darby canine kidney (MDCK) cell line transfected with human MDR1 gene (P-glycoprotein; P-gp) designed to overexpress the MDR1 efflux transporter, a major efflux transporter at the blood brain barrier (BBB), uses an established method that measures the rate of flux of a compound across polarized cell monolayers. As well appreciated in the art, the data generated from the MDCK-MDR1 permeability assay may be used to predict in vivo absorption of drugs. The bi-directional MDCK-MDR1 permeability assay can identify and quantify levels of active efflux. Screening compounds in both the apical to basolateral direction (A→B) and basolateral to apical direction (B→A) across the cell monolayer provides a ratio of B→A/A→B (efflux ratio; “ER”). Unlike the Caco-2 assay, the MDCK-MDR1 assay is not subject to potential efflux interference by breast cancer resistance protein (BCRP). […] The data may further be used to predict blood brain barrier (BBB) permeability via calculation from the data of log(permeability-surface area product) (“log PS”), well-understood to be predictive of the in vivo log([brain concentration]/[plasma concentration]).
# PARP1 enzyme = PARP1 enzyme (Homo sapiens (Human), UniProt P09874); experiment: PARP Mass Spectroscopy Assay (PARP1 enzymatic assay, nicotinamide detection); assay type: biochemical; conditions: 5 nM PARP1, 5 uM β-NAD, 60 min at RT, NAM by mass spectrometry
# Chain of PARP1 enzyme (P09874 whole entry): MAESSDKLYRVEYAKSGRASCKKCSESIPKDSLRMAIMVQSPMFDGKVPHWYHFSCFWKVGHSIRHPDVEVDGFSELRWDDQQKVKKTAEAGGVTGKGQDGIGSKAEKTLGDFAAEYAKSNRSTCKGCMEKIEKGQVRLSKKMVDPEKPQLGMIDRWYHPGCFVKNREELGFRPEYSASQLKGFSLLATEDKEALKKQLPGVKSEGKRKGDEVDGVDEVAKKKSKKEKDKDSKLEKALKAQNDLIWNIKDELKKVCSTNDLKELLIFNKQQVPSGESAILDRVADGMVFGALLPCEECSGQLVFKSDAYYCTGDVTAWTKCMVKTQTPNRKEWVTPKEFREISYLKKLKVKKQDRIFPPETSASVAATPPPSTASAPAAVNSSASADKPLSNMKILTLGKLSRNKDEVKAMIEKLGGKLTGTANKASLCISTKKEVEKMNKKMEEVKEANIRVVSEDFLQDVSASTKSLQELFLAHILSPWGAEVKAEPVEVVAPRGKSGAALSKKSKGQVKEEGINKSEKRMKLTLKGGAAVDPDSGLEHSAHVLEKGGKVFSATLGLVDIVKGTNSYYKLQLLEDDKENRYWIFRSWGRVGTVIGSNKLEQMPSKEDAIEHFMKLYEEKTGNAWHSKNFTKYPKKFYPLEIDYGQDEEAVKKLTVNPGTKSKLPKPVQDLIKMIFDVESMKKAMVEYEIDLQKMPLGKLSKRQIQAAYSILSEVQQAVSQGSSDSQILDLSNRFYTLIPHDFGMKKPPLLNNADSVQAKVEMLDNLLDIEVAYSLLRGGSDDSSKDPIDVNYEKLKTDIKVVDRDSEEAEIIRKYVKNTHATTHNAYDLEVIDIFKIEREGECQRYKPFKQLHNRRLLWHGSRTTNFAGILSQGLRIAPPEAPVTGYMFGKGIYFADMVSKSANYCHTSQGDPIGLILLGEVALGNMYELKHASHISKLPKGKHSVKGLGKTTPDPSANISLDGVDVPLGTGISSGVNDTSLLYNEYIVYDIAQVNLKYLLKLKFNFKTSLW
# Source text: Materials and Reagents: The PARP1 enzyme was purchased from BPS Bioscience (cat #80501). Tris-HCl, pH 8.0 was purchased from Corning (cat #46-031-CM). Magnesium chloride was purchased from Thermo Fisher Scientific (previously Honeywell Fluka, cat #63020-1L). All other assay components, activated DNA (cat #D4522), core histones (cat #SRP6590), β-Nicotinamide adenine dinucleotide (β-NAD—cat #N8285), 3ABA PARP1 small molecule inhibitor (from the PARP1 Enzyme Activity Assay kit, cat #17-10149), Sodium Chloride (NaCl, cat #56546-1L), Triton X-100 (cat #93443), Dithiothreitol (DTT, cat #43816-250 ML) were all purchased from Millipore Sigma.
# Assay Buffer: The assay buffer includes the following reagents: 50 mM Tris-HCl pH 8.0, 50 mM NaCl, 10 mM, MgCl2, 0.01% Triton X-100, and 1 mM DTT.
# PARP1 enzymatic assays were performed in 384-well plates in a total volume of 20 μL in the assay buffer. For concentration response curves, compounds were serially diluted 3-fold from 2 mM highest concentration […] to generate a 10-point curve, and 125 nL was transferred to the assay plate using the Echo acoustic dispenser for a final concentration range of 26.6 μM to […] in 10 μL reaction. Five microliters of 10 nM PARP1 enzyme and 100 nM core histones (2×) mix were added to the assay plates and pre-incubated for 30 mins at room temperature (RT). The reaction was initiated by the addition of a 5 μL of 10 uM β-NAD plus 0.02 mg/mL activated DNA (2×) mix. The reaction is incubated for 60 min at RT. The final concentration of the PARP1 enzyme and substrate concentrations were 5 nM and 5 uM, respectively. The positive control (high signal) and negative control (low signal) wells had 125 nL of DMSO in place of compounds. After the incubation is complete, the reaction is stopped by the addition of 10 μL of 10 uM of the 3ABA PARP1 inhibitor, incubated for 5 min at RT, and placed in the −80 C freezer for shipment to the Valo Health site in Branford Connecticut where mass spectrometry will be used to directly detect quantities of nicotinamide (NAM).
# The percent inhibition of enzyme activity was calculated according to the following equation: […]
# The values of Ssample, Shigh, and Slow in the equation refer to the NAM concentration detected in the assay wells, high control wells, and low control wells, respectively. To determine inhibitor IC50 values, % inhibition of the CRCs (concentration response curves) was fitted to the standard single-site four-parameter logistic equation.
SMILES,MDCK-MDR1 Papp A→B (10^−6 cm/s) [1],MDCK-MDR1 ER [1],IC50 (PARP1 enzyme),Papp A→B [1],efflux ratio [1]
O=c1[nH]nc2c3c(cc(F)cc13)N[C@@H]([C@H]1CCOC1)[C@@H]2c1ccc(F)cc1F [Compound 0115C],4.82 10^−6 cm/s,4.67,252 nM,–,–
Cn1ncnc1[C@@H]1c2n[nH]c(=O)c3cc(F)cc(c23)N[C@H]1C1CC1 [Compound 0203B],0.568 10^−6 cm/s,21.7,–,–,–
O=c1[nH]nc2c3c(cc(F)cc13)N[C@H]([C@H]1CCOC1)[C@H]2c1ccccc1Cl [Compound 0121A],5.66 10^−6 cm/s,3.06,32 nM,–,–
C[C@@H]1Nc2cc(F)cc3c(=O)[nH]nc(c23)[C@H]1c1ncnn1C [Compound 0201B],0.567 10^−6 cm/s,24.7,–,–,–
"CC[C@@H]1Nc2cc(F)cc3c(=O)[nH]nc(c23)[C@H]1c1ccccc1Cl [Compound 0206A, (11S,12S)-12-(2-chlorophenyl)-11-ethyl-7-fluoro-2,3,10-triazatricyclo[7.3.1.0^{5,13}]trideca-1,5(13),6,8-tetraen-4-one]",13.4 10^−6 cm/s,0.695,9 nM,–,–
"O=c1[nH]nc2c3c(cc(F)cc13)NC[C@H]2c1ccc(Cl)c(F)c1 [Compound 0188A, (R)-9-(4-chloro-3-fluorophenyl)-5-fluoro-2,7,8,9-tetrahydro-3H-pyrido[4,3,2-de]phthalazin-3-one]",–,–,28 nM,11.7 ×10⁻⁶ cm/s,0.541
O=c1[nH]nc2c3c(cc(F)cc13)N[C@H]([C@H]1CCOC1)[C@H]2c1ccc(F)cc1F [Compound 0115A],8.3 10^−6 cm/s,1.73,10 nM,–,–
O=c1[nH]nc2c3c(cc(F)cc13)NCC2c1ccc(Cl)cc1F (stereo not shown) [Compound 0189-6],10.6 10^−6 cm/s,0.59,41 nM,–,–
C[C@H]1Nc2cc(F)cc3c(=O)[nH]nc(c23)[C@@H]1c1ccc(C#N)c(F)c1 [Compound 0193A],5.83 10^−6 cm/s,2.63,24 nM,–,–
N#Cc1ccc([C@H]2CNc3cc(F)cc4c(=O)[nH]nc2c34)c(F)c1 [Compound 0187B],8.56 10^−6 cm/s,1.67,41 nM,–,–
"C[C@H]1Nc2cc(F)cc3c(=O)[nH]nc(c23)[C@@H]1c1ccc(F)cc1F [Compound 0174A, (8R,9R)-9-(2,4-difluorophenyl)-5-fluoro-8-methyl-2,7,8,9-tetrahydro-3H-pyrido[4,3,2-de]phthalazin-3-one]",–,–,36 nM,14 ×10⁻⁶ cm/s,0.532
Cn1ncnc1[C@H]1CNc2cc(F)cc3c(=O)[nH]nc1c23 [Compound 0200B],1.2 10^−6 cm/s,12.3,–,–,–
CC[C@@H]1Nc2cc(F)cc3c(=O)[nH]nc(c23)[C@H]1c1ncnn1C [Compound 0202B],0.77 10^−6 cm/s,28.5,–,–,–
O=c1[nH]nc2c3c(cc(F)cc13)N[C@@H]([C@@H]1CCOC1)[C@@H]2c1ccc(F)cc1F [Compound 0115D],4.94 10^−6 cm/s,4.28,–,–,–
C[C@@H]1Nc2cc(F)cc3c(=O)[nH]nc(c23)[C@H]1c1ccc(C#N)cc1F [Compound 0194B],–,–,35 nM,–,–
"CN1CCC([C@H]2Nc3cc(F)cc4c(=O)[nH]nc(c34)[C@@H]2c2ccc(F)cc2F)CC1 [Compound 0110A, (8R,9R)-9-(2,4-difluorophenyl)-5-fluoro-8-(1-methylpiperidin-4-yl)-2,7,8,9-tetrahydro-3H-pyrido[4,3,2-de]phthalazin-3-one]",–,–,1400 nM,–,–
"CC[C@H]1Nc2cc(F)cc3c(=O)[nH]nc(c23)[C@@H]1c1ccccc1Cl [Compound 0206B, (11R,12R)-12-(2-chlorophenyl)-11-ethyl-7-fluoro-2,3,10-triazatricyclo[7.3.1.0^{5,13}]trideca-1,5(13),6,8-tetraen-4-one]",–,–,6 nM,–,–
C[C@H]1Nc2cc(F)cc3c(=O)[nH]nc(c23)[C@@H]1C1CCN(C)CC1 [Compound 0197A],–,–,447 nM,–,–
"COCCN1CCC(C2Nc3cc(F)cc4c(=O)[nH]nc(c34)C2c2ccc(F)cc2F)C1 (stereo not shown) [Compound 0111-6, 12-(2,4-difluorophenyl)-7-fluoro-11-[1-(2-methoxyethyl)pyrrolidin-3-yl]-2,3,10-triazatricyclo[7.3.1.0^{5,13}]trideca-1,5(13),6,8-tetraen-4-one]",–,–,164 nM,–,–
O=c1[nH]nc2c3c(cc(F)cc13)NC[C@H]2c1ccc(Cl)cc1F [Compound 0189A],–,–,79 nM,–,–

# More lines, now with the values ahead:
MDCK-MDR1 Papp A→B (10^−6 cm/s) [1],MDCK-MDR1 ER [1],IC50 (PARP1 enzyme),Papp A→B [1],efflux ratio [1],SMILES
14.4 10^−6 cm/s,0.532,6 nM,–,–,"O=c1[nH]nc2c3c(cc(F)cc13)N[C@H](C1CC1)[C@H]2c1ccccc1Cl [Compound 0207B, (11R,12R)-12-(2-chlorophenyl)-11-cyclopropyl-7-fluoro-2,3,10-triazatricyclo[7.3.1.0^{5,13}]trideca-1,5(13),6,8-tetraen-4-one]"
0.373 10^−6 cm/s,33.3,–,–,–,Cn1ncnc1[C@H]1c2n[nH]c(=O)c3cc(F)cc(c23)N[C@@H]1C1CCC(F)(F)CC1 [Compound 0215A]
9.65 10^−6 cm/s,0.741,64 nM,–,–,"O=c1[nH]nc2c3c(cc(F)cc13)N[C@@H](C1CC1)[C@@H]2c1ccccc1Cl [Compound 0207A, (11S,12S)-12-(2-chlorophenyl)-11-cyclopropyl-7-fluoro-2,3,10-triazatricyclo[7.3.1.0^{5,13}]trideca-1,5(13),6,8-tetraen-4-one]"
9.59 10^−6 cm/s,0.92,18 nM,–,–,CC(C)[C@H]1Nc2cc(F)cc3c(=O)[nH]nc(c23)[C@H]1c1ccccc1Cl [Compound 0222B]
0.685 10^−6 cm/s,37,9 nM,–,–,CC(=O)N1CCC([C@@H]2Nc3cc(F)cc4c(=O)[nH]nc(c34)[C@H]2c2ccccc2Cl)CC1 [Compound 0223B]
5.76 10^−6 cm/s,3.37,–,–,–,O=c1[nH]nc2c3c(cc(F)cc13)N[C@@H](C1CCN(C3CCC(F)(F)CC3)CC1)[C@@H]2c1ccc(Cl)cc1F [Compound 0256A]
0.335 10^−6 cm/s,3.98,–,–,–,CC(=O)N1CCC([C@@H]2Nc3cc(F)cc4c(=O)[nH]nc(c34)[C@H]2c2ncnn2C)CC1 [Compound 0218B]
–,–,5780 nM,–,–,Cn1ncnc1[C@H]1c2n[nH]c(=O)c3cc(F)cc(c23)N[C@@H]1C1CCN(C2CCC(F)(F)CC2)CC1 [Compound 0266B]
–,–,7 nM,–,–,O=c1[nH]nc2c3c(cc(F)cc13)N[C@@H](C1CCN(C3CCC(F)(F)CC3)CC1)[C@@H]2c1ccc(F)cc1F [Compound 0271B]
–,–,108 nM,–,–,N#Cc1ccc([C@H]2c3n[nH]c(=O)c4cc(F)cc(c34)N[C@@H]2C2CCC(F)(F)CC2)cc1F [Compound 0214A]
–,–,4 nM,–,–,O=c1[nH]nc2c3c(cc(F)cc13)NC(C1CCN(C3CCC(F)(F)CC3)CC1)C2c1ccc(F)cc1F (stereo not shown) [Compound 0271-6]
–,–,106 nM,–,–,O=c1[nH]nc2c3c(cc(F)cc13)NC(C1(F)CC1)[C@H]2c1ccccc1Cl (stereo partly shown) [Compound 0260B]
–,–,4 nM,–,–,O=c1[nH]nc2c3c(cc(F)cc13)NC(C1(F)CC1)C2c1ccc(Cl)cc1F (stereo not shown) [Compound 0255-6]
